US9512132B2, “Pyrazole compounds as CB2 agonists” (Hoffmann-La Roche Inc., priority 2013, dated 2016)

How the values were obtained:
human CB2 receptor = human CB2 receptor (Homo sapiens (Human), UniProt P34972); test: cAMP assay, CHO cells expressing human CB2 receptors; format: cell-based; details: functional cAMP assay, CHO cells expressing human CB2; read-out: human CB2 EC50
Description: (§1) CHO cells expressing human CB1 or CB2 receptors are seeded 17-24 hours prior to the experiment 50.000 cells per well in a black 96 well plate with flat clear bottom (Corning Costar #3904) in DMEM (Invitrogen No. 31331), lx HT supplement, with 10% fetal calf serum and incubated at 5% CO2 and 37° C. in a humidified incubator. The growth medium was exchanged with Krebs Ringer Bicarbonate buffer with 1 mM IBMX and incubated at 30° C. for 30 min. Compounds were added to a final assay volume of 100 μl and incubated for 30 min at 30° C. Using the cAMP-Nano-TRF detection kit the assay (Roche Diagnostics) was stopped by the addition of 50 μl lysis reagent (Tris, NaCl, 1.5% Triton X100, 2.5% NP40, 10% NaN3) and 50 μl detection solutions (20 μM mAb Alexa700-cAMP 1:1, and 48 μM Ruthenium-2-AHA-cAMP) and shaken for 2 h at room temperature. The time-resolved energy transfer is measured by a TRF reader (Evotec Technologies GmbH), equipped with a ND:YAG laser as excitation source. The plate is measured twice with the excitation at 355 nm and at the emission with a delay of 100 ns and a gate of 100 ns, total exposure time 10 s at 730 (bandwidth 30 nm) or 645 nm (bandwidth 75 nm), respectively. The FRET signal is calculated as follows: FRET=T730-Alexa730-P(T645-B645) with P=Ru730-B730/Ru645-B645, where T730 is the test well measured at 730 nM, T645 is the test well measured at 645 nm, B730 and B645 are the buffer controls at 730 nm and 645 nm, respectively. cAMP content is determined from the function of a standard curve spanning from 10 μM to 0.13 nM cAMP.
(§2) EC50 values were determined using Activity Base analysis (ID Business Solution, Limited). The EC50 values for a wide range of cannabinoid agonists generated from this assay were in agreement with the values published in the scientific literature.

human CB1 receptor = human CB1 receptor (Homo sapiens (Human), UniProt P21554); test: cAMP assay, CHO cells expressing human CB1 receptors; format: cell-based; details: functional cAMP assay, CHO cells expressing human CB1; read-out: human CB1 EC50
Description: as §1, §2

Sequence of human CB1 receptor (P21554 whole entry): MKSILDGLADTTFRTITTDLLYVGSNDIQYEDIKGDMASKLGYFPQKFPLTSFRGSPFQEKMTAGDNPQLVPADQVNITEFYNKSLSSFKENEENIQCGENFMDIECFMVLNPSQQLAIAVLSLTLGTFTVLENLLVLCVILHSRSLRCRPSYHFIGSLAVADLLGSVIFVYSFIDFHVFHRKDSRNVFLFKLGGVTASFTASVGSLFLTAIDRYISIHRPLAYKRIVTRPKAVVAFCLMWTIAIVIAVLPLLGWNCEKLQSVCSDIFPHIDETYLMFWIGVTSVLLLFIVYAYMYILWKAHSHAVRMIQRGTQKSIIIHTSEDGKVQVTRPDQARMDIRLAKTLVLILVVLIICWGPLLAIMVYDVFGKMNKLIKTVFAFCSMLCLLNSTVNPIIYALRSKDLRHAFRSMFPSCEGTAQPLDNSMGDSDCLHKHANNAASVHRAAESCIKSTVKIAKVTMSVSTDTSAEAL
Sequence of human CB2 receptor (P34972 whole entry): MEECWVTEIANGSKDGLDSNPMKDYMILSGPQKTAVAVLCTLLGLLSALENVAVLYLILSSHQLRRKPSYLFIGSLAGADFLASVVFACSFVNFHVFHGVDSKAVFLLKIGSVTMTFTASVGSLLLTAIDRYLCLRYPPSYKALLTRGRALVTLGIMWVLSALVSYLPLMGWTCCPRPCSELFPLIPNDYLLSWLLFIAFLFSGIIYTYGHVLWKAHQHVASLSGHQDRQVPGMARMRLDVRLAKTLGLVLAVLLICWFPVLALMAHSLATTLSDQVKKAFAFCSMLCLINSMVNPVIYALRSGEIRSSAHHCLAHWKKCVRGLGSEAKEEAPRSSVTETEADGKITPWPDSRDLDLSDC

Row | Structure (SMILES) | EC50 (human CB2 receptor) [nM] | EC50 (human CB1 receptor) [µM]
1 | COc1ccc(Cn2ncc3c(N4CCC(F)(F)C4)cc(C4CC4)nc32)cc1 [Example 24, 6-Cyclopropyl-4-(3,3-difluoro-pyrrolidin-1-yl)-1-[(4-methoxyphenyl)methyl]-1H-pyrazolo[3,4-b]pyridine] | 17.5 | > 10
2 | CC(C)(C)c1nc(N2CC[C@H](O)C2)c2cnn(Cc3ccccc3S(C)(=O)=O)c2n1 [Example 30, (S)-1-[6-tert-Butyl-1-(2-methanesulfonyl-benzyl)-1H-pyrazolo[3,4-d]pyrimidin-4-yl]-pyrrolidin-3-ol] | 2.4 | > 10
3 | CC(C)(C)c1nc(N2CCC(F)(F)C2)c2cnn(CC(=O)c3ccccn3)c2n1 [Example 22, 2-[6-tert-Butyl-4-(3,3-difluoro-pyrrolidin-1-yl)-pyrazolo[3,4-d]pyrimidin-1-yl]-1-pyridin-2-yl-ethanone] | 8.4 | > 10
4 | CC(C)(C)c1nc(N2CCC(F)(F)C2)c2cnn(Cc3ccccc3S(C)(=O)=O)c2n1 [Example 10, 6-tert-Butyl-4-(3,3-difluoro-pyrrolidin-1-yl)-1-(2-methanesulfonyl-benzyl)-1H-pyrazolo[3,4-d]pyrimidine] | 0.7 | 0.337
5 | CC(C)(C)c1nc(N2CCC(F)(F)C2)c2cnn(Cc3ccc(F)cc3Cl)c2n1 [Example 6, 6-tert-Butyl-1-[(2-chloro-4-fluorophenyl)methyl]-4-(3,3-difluoro-pyrrolidin-1-yl)-1H-pyrazolo[3,4-d]pyrimidine] | 5.9 | > 10
6 | CC(C)(C)c1nc(N2CCC(F)(F)C2)c2cnn(C3CCOC3)c2n1 (centres unmarked) [Example 14, 6-tert-Butyl-4-(3,3-difluoro-pyrrolidin-1-yl)-1-(tetrahydro-furan-3-yl)-1H-pyrazolo[3,4-d]pyrimidine] | 1.3 | > 10
7 | CC(C)(C)c1nc(N2CCC(F)(F)C2)c2cnn(Cc3ccccc3Cl)c2n1 [Example 4, 6-tert-Butyl-1-[(2-chlorophenyl)methyl]-4-(3,3-difluoro-pyrrolidin-1-yl)-1H-pyrazolo[3,4-d]pyrimidine] | 4.2 | > 10
8 | CC(C)(C)c1nc(N2CC[C@H](O)C2)c2cnn(Cc3ncccc3Cl)c2n1 [Example 32, (S)-1-[6-tert-Butyl-1-(3-chloro-pyridin-2-ylmethyl)-1H-pyrazolo[3,4-d]pyrimidin-4-yl]-pyrrolidin-3-ol] | 1.5 | > 10
9 | Cc1nonc1Cn1ncc2c(N3CCC(F)(F)C3)nc(C(C)(C)C)nc21 [Example 9, 6-tert-Butyl-4-(3,3-difluoro-pyrrolidin-1-yl)-1-(4-methyl-furazan-3-ylmethyl)-1H-pyrazolo[3,4-d]pyrimidine] | 0.5 | > 10
10 | Cc1nonc1CO[C@H]1CCN(c2nc(C(C)(C)C)nc3c2cnn3Cc2nonc2C)C1 [Example 26, 6-tert-Butyl-4-[(S)-3-(4-methyl-furazan-3-ylmethoxy)-pyrrolidin-1-yl]-1-(4-methyl-furazan-3-ylmethyl)-1H-pyrazolo[3,4-d]pyrimidine] | 35.6 | > 10
11 | CC(C)(C)c1nc(N2CCC(F)(F)C2)c2cnn(CCc3ccccc3)c2n1 [Example 8, 6-tert-Butyl-4-(3,3-difluoro-pyrrolidin-1-yl)-1-phenethyl-1H-pyrazolo[3,4-d]pyrimidine] | 5.4 | > 10
12 | CC(C)(C)c1nc(N2CCC(F)(F)C2)c2cnn(C3CS(=O)(=O)C3)c2n1 [Example 13, 6-tert-Butyl-4-(3,3-difluoro-pyrrolidin-1-yl)-1-(1,1-dioxo-1λ^6-thietan-3-yl)-1H-pyrazolo[3,4-d]pyrimidine] | 19.6 | > 10
13 | Cc1nnc(Cn2ncc3c(N4CCC(F)(F)C4)nc(C(C)(C)C)nc32)n1C [Example 17, 6-tert-Butyl-4-(3,3-difluoro-pyrrolidin-1-yl)-1-(4,5-dimethyl-4H-[1,2,4]triazol-3-ylmethyl)-1H-pyrazolo[3,4-d]pyrimidine] | 3 | > 10
